# In patent US11787792B2, “5-[[4-[[morpholin-2-yl]methylamino]-5-(trifluoromethyl)-2 Pyridyl]Amino]Pyrazine-2-carbonitrile and therapeutic uses thereof” (priority 2012, dated 2023):
# Key:
# Type in all cases: cell-based
# [1] = system: HT29 cells; assay: Cellular potency in Mitosis Inhibition Assay (MIA), checkpoint abrogation after etoposide; settings: for IC50: Homo sapiens, HT-29, HT29 cells, etoposide pre-treatment, nocodazole, read-out: CHK1 Cellular Potency MIA IC50; for (fold better) Compound 1, CHK1 cellular potency MIA: fold by which Compound 1 is more potent than the compound; for (fold better) Compound 2, CHK1 cellular potency MIA: fold by which Compound 2 is more potent than the compound
# Method: Assay 2: Cellular Potency in Mitosis Inhibition Assay (MIA)
# Checkpoint abrogation by CHK1 kinase function inhibitors in combination with genotoxic agents was assessed using a europium based ELISA assay designed to quantify the number of cells trapped in mitosis after treatment with a genotoxic agent (to induce G2 arrest) followed by a CHK1 inhibitor test compound in combination with nocodazole to abrogate this arrest. HT29 cells were seeded at 10^4 cells per well into 96-well plates in a volume of 160 μL and left to attach for 36 hours. […] After genotoxic drug exposure, the medium was removed and replaced with fresh medium (160 μL). […] CHK1 inhibitor test compounds were added in 40 μL aliquots using quadruplicate wells for each concentration. After 21 hours exposure, the medium was removed and cells were fixed in 4% formaldehyde in phosphate buffered saline (PBS, pH 7.4, pre-cooled to 4° C.) for 30 minutes at 4° C., followed by 100% methanol (pre-cooled to −20° C.) for 10 minutes at ambient temperature. Wells were washed with PBS and blocked with 5% dried milk (Marvel) in Tris-buffered saline (TBS, pH 7.4) at 37° C. for 30 minutes. Each well was washed three times with water containing 0.1% Tween 20. […] Primary antibody was removed and wells were washed with water containing 0.1% Tween 20.
# Europium emissions were counted on a Wallac, Victor2 counter (Perkin-Elmer, Bucks UK).
# [2] = system: HT29 cells; assay: Selectivity in cells for CHK1-dependent checkpoint abrogation versus cytotoxicity (Activity Index = SRB IC50/MIA IC50); settings: for (fold better) Compound 1, cellular selectivity: fold by which Compound 1 is more selective than the row's compound; for (fold better) Compound 2, cellular selectivity: fold by which Compound 2 is more selective than the row's compound
# Method: Assay 3: Assessment of Selectivity in Cells for CHK1-Dependent Checkpoint Abrogation Versus Cytotoxicity
# Compound cytotoxicity was assessed using a 96 hour sulforhodamine B assay (SRB, Sigma catalog number S9012). HT29 or SW620 cells were seeded at 1.6 to 3.2×10^3 cells per well in 96-well plates in a volume of 160 μL medium and allowed to attach for 36 hours prior to treatment. […] Cells were incubated for 96 hours (four doublings) at 37° C. in a humidified 5% CO2 environment and then fixed and stained with SRB.
# The Activity Index (AI), a measure of the selectivity of the CHK1 inhibitor test compounds for effecting CHK1-dependent checkpoint abrogation versus cytotoxicity was calculated from the ratio of the CHK1 inhibitor cytotoxicity IC50 versus the MIA IC50 (i.e., AI=CHK1 inhibitor SRB IC50/MIA IC50), both measured in HT29 cells.
# [3] = system: HT29 cells; assay: Cellular efficacy in combination with SN38 (SRB potentiation assay); settings: SRB IC50/Potentiation IC50, HT29 cells, SN38 at its IC50, 96 hours
# Method: Assay 4: Cellular Efficacy in HT29 or SW620 Colon Carcinoma Cells in Combination with SN38 or Gemcitabine
# HT29 or SW620 cells were seeded at 1.6 to 3.2×10^3 cells per well in 96-well plates in a volume of 160 μL medium and allowed to attach for 36 hours prior to treatment.
# The Potentiation Index (PI) was calculated as a measure of the ability of the CHK1 inhibitor to enhance SN38 or gemcitabine cytotoxicity and was defined as the ratio of the Cytotoxicity IC50 of the CHK1 inhibitor alone versus the Potentiation IC50 of the CHK1 inhibitor combined with the genotoxic (i.e., PI=CHK1 inhibitor SRB IC50/Potentiation IC50).
Structure (SMILES),IC50 [1] [nM],"(fold better) Compound 1, CHK1 cellular potency MIA [1] [fold]","(fold better) Compound 2, CHK1 cellular potency MIA [1] [fold]","(fold better) Compound 1, cellular selectivity [2] [fold]","(fold better) Compound 2, cellular selectivity [2] [fold]",Cell Efficacy + SN38 in HT29 cells (Potentiation Index) [3] [fold]
"N#Cc1cnc(Nc2cc(NC[C@H]3CNCCO3)c(C(F)(F)F)cn2)cn1 [Compound 1, 5-[[4-[[(2R)-Morpholin-2-yl]methylamino]-5-(trifluoromethyl)-2-pyridyl]amino]pyrazine-2-carbonitrile]",30,–,–,–,–,–
"N#Cc1cnc(Nc2cc(NC[C@@H]3CNCCO3)c(C(F)(F)F)cn2)cn1 [Compound 2, 5-[[4-[[(2S)-Morpholin-2-yl]methylamino]-5-(trifluoromethyl)-2-pyridyl]amino]pyrazine-2-carbonitrile]",18,–,–,–,–,–
N#Cc1cnc(Nc2cc(NCC3CNCCO3)c(C(=O)Nc3ccccc3)cn2)cn1 (stereo not shown) [Compound Y-102],800,~27,~44,~5.6,~33,–
COCc1ccc(-c2cnc(Nc3cnc(C#N)cn3)cc2NC[C@@H]2CNCCO2)cc1 [Compound Y-148],900,~30,~50,~5.9,~34,–
COCCOc1ccc(-c2cnc(Nc3cnc(C#N)cn3)cc2NC[C@@H]2CNCCO2)cc1 [Compound Y-149],1100,~34,~61,~7.4,~43,–
COCC#Cc1cnc(Nc2cnc(C#N)cn2)cc1NC[C@@H]1CNCCO1 [Compound Y-154],90,–,–,–,–,–
COC(C)(C)C#Cc1cnc(Nc2cnc(C#N)cn2)cc1NC[C@@H]1CNCCO1 [Compound Y-155],120,~4,~7,~2.4,~13,0.9
COCc1ccc(-c2cnc(Nc3cnc(C#N)cn3)cc2NC[C@H]2CNCCO2)cc1 [Compound Y-156],560,~19,~31,~4.8,~28,1.6
COCCOc1ccc(-c2cnc(Nc3cnc(C#N)cn3)cc2NC[C@H]2CNCCO2)cc1 [Compound Y-157],600,~20,~33,~4.1,~24,2
COCCCc1cnc(Nc2cnc(C#N)cn2)cc1NC[C@H]1CNCCO1 [Compound Y-159],700,–,–,–,–,–
